Legend:
[1] = system: Pseudomonas aeruginosa UI-18: Wild-type (PA-7); assay: MIC determination (CLSI), strain PA-7; format: cell-based; settings: strain PA-7, unit assumed
How it was run: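 MIC determined by broth dilution per CLSI M7-A7 guidelines with M100-S18 interpretive standards. Test organism: wild-type Pseudomonas aeruginosa UI-18, designated PA-7.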

[2] = system: Escherichia coli EC-1: VOGEL, mouse virulent; assay: MIC determination (CLSI), strain EC-1; format: cell-based; settings: strain EC-1, unit assumed
How it was run: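 The mouse-virulent VOGEL isolate of E. coli, EC-1, served as test organism. Minimum inhibitory concentration was measured by CLSI dilution methodology (M7-A7; M100-S18 standards).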

[3] = generated in the same manner as in Table 4

Row | SMILES | PA-7 (MIC) [1] [µg/mL] | EC-1 (MIC) [2] [µg/mL] | PA-7 (MIC) [1, 3] [µg/mL] | EC-1 (MIC) [2, 3] [µg/mL]
1 | Cc1cc(OCCCCO)ccc1-c1ccn(CCC(C)(C(=O)NO)S(C)(=O)=O)c(=O)c1 (stereo not drawn) [Example 243, N-hydroxy-4-{4-[4-(4-hydroxybutoxy)-2-methylphenyl]-2-oxopyridin-1(2H)-yl}-2-methyl-2-(methylsulfonyl)butanamide] | 8 | 4 |  | 
2 | CCN(CC)C(=O)c1ccc(-c2ccn(CCC(C)(C(=O)NO)S(C)(=O)=O)c(=O)c2)cc1 (stereo not drawn) [Example 126, N,N-diethyl-4-{1-[4-(hydroxyamino)-3-methyl-3-(methylsulfonyl)-4-oxobutyl]-2-oxo-1,2-dihydropyridin-4-yl}benzamide] |  |  | > 64 | > 64
3 | CC(CCn1ccc(-c2ccc3ncccc3c2)cc1=O)(C(=O)NO)S(C)(=O)=O (stereo not drawn) [Example 254] | 4 | 4 |  | 
4 | Cc1ccc(C#N)c(Oc2ccc(-c3ccn(CC[C@](C)(C(=O)NO)S(C)(=O)=O)c(=O)c3)cc2)n1 [Example 438, (2R)-4-[4-{4-[(3-cyano-6-methylpyridin-2-yl)oxy]phenyl}-2-oxopyridin-1(2H)-yl]-N-hydroxy-2-methyl-2-(methylsulfonyl)butanamide] | 8 | 4 |  | 
5 | CC(CCn1ccc(-c2ccc3c(ccn3CCCO)c2)cc1=O)(C(=O)NO)S(C)(=O)=O (stereo not drawn) [Example 267, N-hydroxy-4-{4-[1-(3-hydroxypropyl)-1H-indol-5-yl]-2-oxopyridin-1(2H)-yl}-2-methyl-2-(methylsulfonyl)butanamide] | 8 | 2 |  | 
6 | C[C@@](CCn1ccc(-c2ccc(OCCCCO)cc2)cc1=O)(C(=O)NO)S(C)(=O)=O [Example 279, (2R)-N-hydroxy-4-{4-[4-(4-hydroxybutoxy)phenyl]-2-oxopyridin-1(2H)-yl}-2-methyl-2-(methylsulfonyl)butanamide] | 1 | 0.5 |  | 
7 | Cc1cc(-c2ccn(CCC(C)(C(=O)NO)S(C)(=O)=O)c(=O)c2)ccc1F (stereo not drawn) [Example 193, 4-[4-(4-fluoro-3-methylphenyl)-2-oxopyridin-1(2H)-yl]-N-hydroxy-2-methyl-2-(methylsulfonyl)butanamide] | 2 | 2 |  | 
8 | CC(C)(C#N)c1ccc(-c2ccn(CC[C@](C)(C(=O)NO)S(C)(=O)=O)c(=O)c2)cc1 [Example 362, (2R)-4-{4-[4-(1-cyano-1-methylethyl)phenyl]-2-oxopyridin-1(2H)-yl}-N-hydroxy-2-methyl-2-(methylsulfonyl)butanamide] | 4 | 16 |  | 
9 | Cc1c(-c2ccc(Cl)cc2)ccn(CC[C@](C)(C(=O)NO)S(C)(=O)=O)c1=O [Example 396, (2R)-4-[4-(4-chlorophenyl)-3-methyl-2-oxopyridin-1(2H)-yl]-N-hydroxy-2-methyl-2-(methylsulfonyl)butanamide] | 0.5 | 0.25 |  | 
10 | C[C@@](CCn1ccc(-c2ccc(Oc3ccccc3C#N)cc2)cc1=O)(C(=O)NO)S(C)(=O)=O [Example 426, (2R)-4-{4-[4-(2-cyanophenoxy)phenyl]-2-oxopyridin-1(2H)-yl}-N-hydroxy-2-methyl-2-(methylsulfonyl)butanamide] | 1 | 0.25 |  | 
11 | Cc1cc(OCCO)ccc1-c1ccn(CCC(C)(C(=O)NO)S(C)(=O)=O)c(=O)c1 (stereo not drawn) [Example 237, N-hydroxy-4-{4-[4-(2-hydroxyethoxy)-2-methylphenyl]-2-oxopyridin-1(2H)-yl}-2-methyl-2-(methylsulfonyl)butanamide] | 32 | > 64 |  | 
12 | Cc1cccc(-c2ccc(-c3ccn(CC[C@](C)(C(=O)NO)S(C)(=O)=O)c(=O)c3)cc2)n1 [Example 422, (2R)-N-hydroxy-2-methyl-4-{4-[4-(6-methylpyridin-2-yl)phenyl]-2-oxopyridin-1(2H)-yl}-2-(methylsulfonyl)butanamide] | 4 | 0.5 |  | 
13 | CN1CCN(CCCOc2ccc(-c3ccn(CCC(C)(C(=O)NO)S(C)(=O)=O)c(=O)c3)cc2)CC1 (stereo not drawn) [Example 87] |  |  | 32 | 64
14 | CCOc1ncccc1-c1ccn(CCC(C)(C(=O)NO)S(C)(=O)=O)c(=O)c1 (stereo not drawn) [Example 205, 4-(2-ethoxy-2′-oxo-3,4′-bipyridin-1′(2′H)-yl)-N-hydroxy-2-methyl-2-(methylsulfonyl)butanamide] | > 64 | > 64 |  | 
15 | CC(CCn1ccc(-c2ccc(OCCCCO)cc2)cc1=O)(C(=O)NO)S(C)(=O)=O (stereo not drawn) [Example 75, N-hydroxy-4-{4-[4-(4-hydroxybutoxy)phenyl]-2-oxopyridin-1(2H)-yl}-2-methyl-2-(methylsulfonyl)butanamide] |  |  | 4 | 2
16 | Cc1ccc(-c2ccn(CC[C@](C)(C(=O)NO)S(C)(=O)=O)c(=O)c2)cc1F [Example 322, (2R)-4-[4-(3-fluoro-4-methylphenyl)-2-oxopyridin-1(2H)-yl]-N-hydroxy-2-methyl-2-(methylsulfonyl)butanamide] | 0.5 | 0.5 |  | 
17 | CC(CCn1ccc(-c2ccc(C(=O)CO)cc2)cc1=O)(C(=O)NO)S(C)(=O)=O (stereo not drawn) [Example 73, 4-[4-(4-glycoloylphenyl)-2-oxopyridin-1(2H)-yl]-N-hydroxy-2-methyl-2-(methylsulfonyl)butanamide] |  |  | 64 | > 64
18 | CC(CCn1ccc(-c2ccc(OCCO)cc2F)cc1=O)(C(=O)NO)S(C)(=O)=O (stereo not drawn) [Example 85, 4-{4-[2-fluoro-4-(2-hydroxyethoxy)phenyl]-2-oxopyridin-1(2H)-yl}-N-hydroxy-2-methyl-2-(methylsulfonyl)butanamide] |  |  | 16 | 16
19 | C[C@@](CCn1ccc(-c2ccc3cc(CO)ccc3c2)cc1=O)(C(=O)NO)S(C)(=O)=O [Example 315, (2R)-N-hydroxy-4-{4-[6-(hydroxymethyl)-2-naphthyl]-2-oxopyridin-1(2H)-yl}-2-methyl-2-(methylsulfonyl)butanamide] | 1 | 0.5 |  | 
20 | C[C@@](CCn1ccc(-c2ccc3c(c2)C(=O)OC3)cc1=O)(C(=O)NO)S(C)(=O)=O [Example 486] | > 64 | > 64 |  | 
21 | C[C@@](CCn1ccc(-c2ccc(Oc3ncccc3Cl)cc2)cc1=O)(C(=O)NO)S(C)(=O)=O [Example 440, (2R)-4-[4-{4-[(3-chloropyridin-2-yl)oxy]phenyl}-2-oxopyridin-1(2H)-yl]-N-hydroxy-2-methyl-2-(methylsulfonyl)butanamide] | 2 | 0.06 |  | 
22 | CCOc1ccc(-c2ccn(CCC(C)(C(=O)NO)S(C)(=O)=O)c(=O)c2)cn1 (stereo not drawn) [Example 185, 4-(6-ethoxy-2′-oxo-3,4′-bipyridin-1′(2′H)-yl)-N-hydroxy-2-methyl-2-(methylsulfonyl)butanamide] | 4 | 2 |  | 
23 | CC(CCn1ccc(-c2ccccc2O)cc1=O)(C(=O)NO)S(C)(=O)=O (stereo not drawn) [Example 213, N-hydroxy-4-[4-(2-hydroxyphenyl)-2-oxopyridin-1(2H)-yl]-2-methyl-2-(methylsulfonyl)butanamide] | > 64 | > 64 |  | 
24 | CC(CCn1ccc(-c2ccc(C3CCCCC3)cc2)cc1=O)(C(=O)NO)S(C)(=O)=O (stereo not drawn) [Example 119, 4-[4-(4-cyclohexylphenyl)-2-oxopyridin-1(2H)-yl]-N-hydroxy-2-methyl-2-(methylsulfonyl)butanamide] |  |  | 16 | 0.5
